Where a name gives a salt, the structure may show the parent alone. Marks after values point to notes of the source that are not given here.
What was measured:
Format in all cases: physicochemical
[1] = Solid stability evaluation (I/II), XRPD and HPLC; conditions: for Chemical stability compared with free form: 60° C. 1 day, 25° C./60% RH or 40° C./75% RH 1 week
Description: To evaluate the physical and chemical stability of 1:1 Compound I Tris Salt (Form A) and amorphous free form, samples were stored under the conditions of 60° C. for 1 day and 25° C./60% RH or 40° C./75% RH for 1 week, respectively.
To evaluate the physical and chemical stability of 1:1 Compound II Citrate Salt (Form A), 1:1 Compound II Tris Salt (Form B) and freeform, samples were stored under the conditions of 60° C. for 1 day and 25° C./60% RH or 40° C./75% RH for 1 week, respectively.

Hygroscopicity, DVS test = conditions: for Hygroscopicity: according to Chinese Pharmacopeia 2015
Description: DVS was measured via a SMS (Surface Measurement Systems) DVS Intrinsic. The relative humidity at 25° C. were calibrated against deliquescence point of LiCl, Mg(NO3)2 and KCl.
To investigate the solid form stability as a function of humidity, DVS isotherm plot of 1:1 Compound I Tris Salt (Form A) was collected between 0% RH and 95% RH at 25° C. […] Considering the 1:1 Compound I Tris Salt (Form A) is a hydrate and may dehydrate under low humidity, DVS was also tested at 20 and 30° C. to further confirm the suitable storage condition and avoid dehydration. […] Combing the VH-XRPD and DVS results: the condition of 20-30° C. and relative humidity ≥40% RH is suitable for the storage of 1:1 Compound I Tris Salt (Form A).
To investigate the solid form stability as a function of humidity, DVS isotherm plots of 1:1 Compound II Citrate Salt (Form A) and 1:1 Compound II Tris Salt (Form B) were collected at 25° C. between 0% RH and 95% RH. […] The water uptake increased by 0.97% from 10% to 80% RH and a platform was observed.

[2] = VH-XRPD, dehydration of the hydrate
Description: VH-XRPD and single crystal structure determination were performed for 1:1 Compound I Tris Salt (Form A) and it was identified as a monohydrate, which would dehydrate at the ≤30%RH condition.
VH-XRPD was performed for a 1:1 Compound II tris salt (Form B) sample for further identification. […] Combining the characterization results, it is believe that 1:1 Compound II tris salt (Form B) is a hydrate, which would dehydrate below ≤10% RH.

Polymorph screening = conditions: solution crystallization and solid transition methods
Description: Polymorph screening experiments on 1:1 Compound I Tris Salt (Form A) were performed under vairous conditions using different solution crystallization or solid transition methods, including anti-solvent addition, reverse anti-solvent addition, slow evaporation, slow cooling, slurry at RT, slurry at 50° C., slurry cycling 5-50° C., vapor-solid diffusion, vapor-solution diffusion, polymer induced crystallization, and grinding.

Compound | Form change ([1]; 25° C./60% RH (open), 1 week) | Observation ([1]; 25° C./60% RH (open), 1 week) | Purity (area %) ([1]; 25° C./60% RH (open), 1 week) | Form change ([1]; 40° C./75% RH (open), 1 week) | Observation ([1]; 40° C./75% RH (open), 1 week) | Purity (area %) ([1]; 40° C./75% RH (open), 1 week) | Chemical stability compared with free form [1] | Form change ([1]; 60° C. (capped), 1 day) | Observation ([1]; 60° C. (capped), 1 day) | Purity (area %) ([1]; 60° C. (capped), 1 day) | Form change ([1]; Initial) | Observation ([1]; Initial) | Purity (area %) ([1]; Initial) | Form change after DVS test (Hygroscopicity, DVS test; 25° C.) | Hygroscopicity (Hygroscopicity, DVS test; 25° C.) | Relative humidity at which the hydrate would dehydrate [2] [% RH] | Water uptake (80% RH) (Hygroscopicity, DVS test; 25° C.) [%] | further results
N#Cc1ccc(COc2cccc(C3=CCN(Cc4nc5ccc(C(=O)O)cc5n4C[C@@H]4CCO4)CC3)n2)c(F)c1 [Tris salt Form B, (S)-2-((6-((4-cyano-2-fluorobenzyl)oxy)-3′,6′-dihydro-[2,4′-bipyridin]-1′(2′H)-yl)methyl)-1-(oxetan-2-ylmethyl)-1H-benzo[d]imidazole-6-carboxylic acid] | No | Yellow | 93.86 | No | Yellow | 94.13 | better chemical stability | No | Yellow | 92.98 | No | Yellowish | 94.56 | No | Slightly hygroscopic | ≤ 10 |  | Water uptake increase between 0% and 10% RH (Hygroscopicity, DVS test; 25° C., cycle 2 sorption curve): 2.47%; Water uptake from 10% RH to 80% RH (Hygroscopicity, DVS test; 25° C.): 0.97%*; Water uptake from 10% RH to 80% RH (Hygroscopicity, DVS test; 25° C., listed as 1:1 Compound II Tris Salt (Form B)): 0.97%
O=C(O)c1ccc2nc(CN3CC=C(c4cccc(OCc5ccc(Cl)cc5F)c4)CC3)n(C[C@@H]3CCO3)c2c1 [Tris salt Form A, (S)-2-((4-(3-((4-chloro-2-fluorobenzyl)-oxy)phenyl)-3,6-dihydropyridin-1(2H)-yl)methyl)-1-(oxetan-2-ylmethyl)-1H-benzo[d]-imidazole-6-carboxylic acid] |  |  | 94.70 | No | Yellowish | 95.40 | better chemical stability |  |  | 93.49 |  |  | 95.46 | No | Hygroscopic | ≤ 30 | 2.77 | Form change in polymorph screening (Polymorph screening): did not change under most of the test conditions; Form change after DVS test (Hygroscopicity, DVS test; 20° C.): No; Water uptake (80% RH) (Hygroscopicity, DVS test; 20° C.): 2.24%; Hygroscopicity (Hygroscopicity, DVS test; 20° C.): Hygroscopic; Form change after DVS test (Hygroscopicity, DVS test; 25° C., listed as 1:1 Compound I Tris Salt (Form A)): No form change; Form change after DVS test (Hygroscopicity, DVS test; 30° C.): No; Water uptake (80% RH) (Hygroscopicity, DVS test; 30° C.): 2.99%; Hygroscopicity (Hygroscopicity, DVS test; 30° C.): Hygroscopic
N#Cc1ccc(COc2cccc(C3=CCN(Cc4nc5ccc(C(=O)O)cc5n4C[C@@H]4CCO4)CC3)n2)c(F)c1 [Citrate salt Form A, (S)-2-((6-((4-cyano-2-fluorobenzyl)oxy)-3′,6′-dihydro-[2,4′-bipyridin]-1′(2′H)-yl)methyl)-1-(oxetan-2-ylmethyl)-1H-benzo[d]imidazole-6-carboxylic acid] | No | White | 97.58 | No | White | 97.14 | better chemical stability | No | White | 97.50 | No | White | 97.73 | No | Slightly hygroscopic |  | 0.71 | Water uptake (80% RH) (Hygroscopicity, DVS test; 25° C., listed as 1:1 Compound II Citrate Salt (Form A)): 0.71%
